According to patent US20100068793A1, “DEVICES AND METHODS FOR PRODUCTION OF CELL AGGREGATES” (priority 2007, published 2010):
“Also recorded” adds a separate entry of the source.

Experiments:
hESC [1] = experiment: Aggregate formation from hESC cultured on Matrigel after BMP pre-differentiation; format: cell-based, human; conditions: 50 ng/mL BMP4 pre-differentiation, control without BMP4 formed no aggregates
Experimental: Prepare a single-cell suspension by treating the hESC culture with TrypIE for 5 minutes, and washing the cells off with X-Vivo10
Count cells, spin down and re-suspend to 1 million cells/mL in X-Vivo or other medium of interest. Cells may all derive from a single culture, or cells from different sources may be combined.

hESC [2] = experiment: Forced aggregation of hESC with or without ROCK inhibitor Y-27632; format: cell-based, human
Experimental: d) form aggregates in the presence of 10 μM Y27632 5. Suspend cells in X-vivo10 or other medium of interest at a concentration appropriate to the desired EB size and plate format (e.g. to form aggregates from 10,000 cells in 100 μL medium each in 96-well plates, suspend 1 million cells in 10 mL; for aggregates from 2,000 cells in 25 μL medium each in 384-well plates, suspend 0.8 million cells in 10 mL. NB multichannel pipettes or automated liquid handling systems often require a minimum “dead volume”, thus it may be necessary to make 10-20% additional volume of suspension depending on the specifics of the equipment employed. 6. Dispense the cell suspension into the well plates prepared in step 2. 7. Centrifuge for 5 minutes at 240×g 8. Incubate overnight at 37 degrees, 5% CO2 in a standard tissue culture incubator. 9. Recover EBs by pipetting using large-bore or cut-off pipette tips or by inverted centrifugation in the device described and illustrated in FIG. 1 or 2 for 1 minute at 20×g hESC were cultured on Matrigel in conditioned medium or with 48 hours of pre-differentiation in serum-containing medium, and were subjected to the forced aggregation protocol at 2,000 cells per well with or without addition of 10 μM of the ROCK inhibitor Y-27632. […] In the absence of both, no aggregates were formed (N.D.—size not determined). […]

Compound	stable aggregate formation after BMP4 pre-differentiation (hESC [1])	aggregate size and symmetry (hESC [2]; 10 μM Y-27632, hESC cultured on Matrigel, 2,000 cells per well, with or without 48 hours pre-differentiation in serum-containing medium)	aggregate formation / stability (SISO-aggregates, cross-sectional area) (hESC [2]; 10 μM Y-27632 added to cell suspension immediately prior to dispensing, hESC on Matrigel in MEF-conditioned medium, with or without 48 hours predifferentiation in 20% serum)
BMP4: bone morphogenetic protein growth factor used for pre-differentiation	Aggregates formed from the pre-differentiated population	–	–
C[C@@H](N)[C@H]1CC[C@H](C(=O)Nc2ccncc2)CC1 [Y-27632]	–	size and symmetry of aggregates are improved; also recorded: substantially increased aggregate size and symmetry	sizeable aggregates resulted
